Measurements taken from paper PMC10388363, “Novel 1,4-Dihydropyridines as Specific Binders and Activators of SIRT3 Impair Cell Viability and Clonogenicity and Downregulate Hypoxia-Induced Targets in Cancer Cells” (Journal of Medicinal Chemistry, 2023).

How the values were obtained:
human SIRT3 = target: T1, human SIRT3 (Homo sapiens, UniProt Q9NTG7); assay: PncA/GDH-coupled deacylation assay, SIRT3 activation (ACS2-acK642 substrate); assay type: biochemical; settings: 100 μM, 387% vs 269%
T1 construct: pET151D/Topo (Sirt3-114-380 and Sirt5-34-302); His tag (N, cleaved yes); made in house; host or cells: Escherichia coli
T1 sequence (Q9NTG7 114-380): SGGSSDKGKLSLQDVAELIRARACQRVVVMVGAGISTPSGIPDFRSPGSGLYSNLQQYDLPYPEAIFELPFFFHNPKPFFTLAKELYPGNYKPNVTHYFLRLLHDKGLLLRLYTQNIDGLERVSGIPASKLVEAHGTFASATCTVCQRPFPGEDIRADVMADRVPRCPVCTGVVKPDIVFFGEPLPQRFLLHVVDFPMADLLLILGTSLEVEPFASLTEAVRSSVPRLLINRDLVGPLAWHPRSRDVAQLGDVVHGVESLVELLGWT
Experimental: To avoid artifacts and other non-specific effects, instead of the “Fluor-de-Lys” (FdL) substrate, we used a PncA/GDH-coupled deacylation assay by measuring the NADPH oxidation to NADP^+ that relies on isoform-specific non-modified physiological acetyl or succinyl substrates [p53-acK381 for SIRT1, α-tubulin-[…] for SIRT2, acetyl-CoA synthetase 2 (ACS2)-acK642 for SIRT3, and CPS1-succK537 for SIRT5].[59] The assays were carried out using the 1,4-DHP derivatives 2a–n and 3a–d against SIRT3, including the prototype compounds 2 and 3 as positive controls.
N-terminally his-tagged human sirtuins were expressed in Escherichia coli using constructs in pET15b (Sirt1) or pET151D/Topo (Sirt3-114-380 and Sirt5-34-302).[4],[59],[61] Sirt2-43-356 was expressed from a modified pET19b containing a TEV protease cleavage site and an N-terminal SUMO-tag.[59],[79] Proteins were expressed and purified as described elsewhere.[59],[61],[79]−[81] In brief, proteins were expressed in E. coli, crude extracts were cleared by centrifugation, and the proteins were affinity purified using NiNTA beads.
Sirtuin deacylation activities were analyzed by using a coupled enzymatic assay as described in.[59],[82] […]

[1] = test system: acK68- and acK122-MnSOD in MDA-MB-231 cells; assay: Western blot of MnSOD acK68 and acK122 marks in MDA-MB-231 cells; assay type: cell-based, human; settings: 4 h, MDA-MB-231
Experimental: K68-MnSOD acetylation promotes a transformation-permissive phenotype, leading to a chemotherapy-resistant breast cancer cell model using cisplatin and doxorubicin.[68] […] The specific SIRT3 inhibitor 3-TYP was utilized as negative control.
Breast cancer cell line MDA-MB-231, anaplastic thyroid cancer cell line CAL-62 and human keratinocytes HaCaT were purchased from ATCC and were cultured in RPMI 1640 medium (R0883 Sigma Aldrich-MERCK) (MDA-MB-231 and CAL-62) or DMEM medium (11965092, Gibco) supplemented with 10% fetal bovine serum (Sigma-Aldrich-MERCK, F9665), 2 mM glutamine (G7513; Sigma-Aldrich-MERCK), 100 units/mL penicillin and 0.1 mg/mL streptomycin (P0781; Sigma-Aldrich-MERCK). Adherent cells were detached by Trypsin–EDTA solution (TA049; Sigma-Aldrich-MERCK). Cells were maintained at 37 °C in humidified incubator with 5% CO2. Cells were treated with […] (CoCl2) (Merck; C8661) dissolved in distilled, sterile water for 24 h to induce hypoxia (200 μM). […]
The following antibodies were used in this study: ACTB (Merck; A5316), HIF1-α (Cell Signaling; 14179), HIF2/EPAS-1 (Santa Cruz Biotechnology sc-13596), HXKII (Santa Cruz Biotechnology sc-6521), CAIX (Novus Biotechnology NB100-417), SIRT3 (Cell Signaling; 2627S), MnSOD (Abcam ab13533), MnSOD K68 (Abcam ab137037), MnSOD K122 (Abcam ab214675), peroxidase-conjugated AffiniPure Goat Anti-Rabbit IgG (H + L) (Jackson ImmunoResearch; 111-035-003), and peroxidase-conjugated AffiniPure Goat Anti-Mouse IgG (H + L) (Jackson ImmunoResearch; 115-035-062).
Treated and untreated cells were collected and centrifuged at 3000 rpm for 5 min. […] Protein concentration was determined by the Bradford assay (Bio-Rad; 500-0205). […] After three more washes in PBST, the detection of the relevant protein was assessed by enhanced chemiluminescence (Lite Ablot TURBO, Euro-Clone; EMP012001). […]

Row | SMILES | SIRT3 activation potency relative to reference 3 (human SIRT3) [fold] | acK122-MnSOD deacetylation ([1]; 10 μM) | ratio acK68- or acK122-MnSOD/MnSOD ([1]; 50 μM)
1 | CCOC(=O)C1=CN(C(=O)c2ccc(OC)c(OC)c2)C=C(C(=O)OCC)C1c1ccccc1 [Compound 3c, Diethyl 1-(3,4-dimethoxybenzoyl)-4-phenyl-1,4-dihydropyridine-3,5-dicarboxylate] | 1.4 |  | 
2 | CCOC(=O)C1=CN(C(=O)c2cc(OC)cc(OC)c2)C=C(C(=O)OCC)C1c1ccccc1 [Compound 3d, Diethyl 1-(3,5-dimethoxybenzoyl)-4-phenyl-1,4-dihydropyridine-3,5-dicarboxylate] |  | significant acK122 deacetylation | decrease
